Assay results taken from the NIST ThermoML archive (doi:10.1016/j.fluid.2005.05.023).

Assay: xn = mol fraction of the nth substance listed
Details: Liquid, Vibrating tube method

Cc1ccccc1 [toluene] + CCO
mass density [kg/m3]
Details	100 kPa	5000 kPa	10000 kPa	15000 kPa	20000 kPa	25000 kPa	30000 kPa	35000 kPa	40000 kPa	45000 kPa
283.15 K, x2 = 0	876.1	879.5	882.9	886.1	889.3	892.4	895.3	898.2	901	903.7
283.15 K, x2 = 0.125	870.4	873.9	877.4	880.7	883.8	886.9	889.9	892.8	895.6	898.4
283.15 K, x2 = 0.25	864.3	867.9	871.3	874.6	877.9	881	884	886.9	889.7	892.5
283.15 K, x2 = 0.375	857.5	861.1	864.6	867.9	871.2	874.3	877.3	880.3	883.1	885.9
283.15 K, x2 = 0.5	849.5	853.2	856.7	860.1	863.4	866.5	869.6	872.5	875.4	878.2
283.15 K, x2 = 0.625	840.2	843.9	847.5	850.9	854.2	857.4	860.5	863.5	866.4	869.2
283.15 K, x2 = 0.75	829.2	832.9	836.5	840	843.4	846.6	849.7	852.8	855.7	858.6
283.15 K, x2 = 0.875	815.4	819.2	823	826.5	829.9	833.2	836.4	839.5	842.5	845.4
293.15 K, x2 = 0	866.8	870.5	874.1	877.5	880.8	884	887.1	890.1	893	895.9
293.15 K, x2 = 0.125	861	864.7	868.3	871.8	875.1	878.4	881.5	884.6	887.5	890.4
293.15 K, x2 = 0.25	854.9	858.6	862.3	865.8	869.2	872.5	875.6	878.7	881.7	884.5
293.15 K, x2 = 0.375	848.1	851.8	855.5	859.1	862.5	865.8	869	872.1	875.1	878
293.15 K, x2 = 0.5	840.3	844	847.8	851.4	854.8	858.1	861.4	864.5	867.5	870.4
293.15 K, x2 = 0.625	831.1	834.9	838.7	842.3	845.8	849.2	852.4	855.5	858.6	861.5
293.15 K, x2 = 0.75	820.2	824.1	827.9	831.6	835.1	838.5	841.8	845	848	851
293.15 K, x2 = 0.875	806.6	810.6	814.5	818.3	821.9	825.4	828.7	831.9	835	838
303.15 K, x2 = 0	857.5	861.4	865.2	868.8	872.3	875.7	879	882.1	885.2	888.1
303.15 K, x2 = 0.125	851.4	855.4	859.2	862.9	866.4	869.9	873.2	876.4	879.4	882.5
303.15 K, x2 = 0.25	845.3	849.3	853.2	856.9	860.5	863.9	867.3	870.4	873.6	876.6
303.15 K, x2 = 0.375	838.5	842.6	846.5	850.3	853.9	857.3	860.7	863.9	867.1	870.1
303.15 K, x2 = 0.5	830.8	834.8	838.8	842.6	846.2	849.7	853.1	856.4	859.5	862.6
303.15 K, x2 = 0.625	821.7	825.8	829.8	833.7	837.3	840.9	844.3	847.6	850.7	853.8
303.15 K, x2 = 0.75	810.9	815.1	819.2	823.1	826.8	830.4	833.8	837.1	840.3	843.4
303.15 K, x2 = 0.875	797.6	801.9	806.1	810	813.8	817.4	820.9	824.3	827.5	830.6
313.15 K, x2 = 0	848.1	852.2	856.2	860	863.7	867.3	870.7	874	877.2	880.3
313.15 K, x2 = 0.125	841.8	845.9	850	853.9	857.7	861.3	864.7	868.1	871.3	874.5
313.15 K, x2 = 0.25	835.6	839.8	844	847.9	851.7	855.3	858.8	862.2	865.4	868.6
313.15 K, x2 = 0.375	828.9	833.2	837.3	841.3	845.1	848.8	852.3	855.7	859	862.2
313.15 K, x2 = 0.5	821.2	825.5	829.7	833.7	837.5	841.2	844.8	848.2	851.5	854.7
313.15 K, x2 = 0.625	812.2	816.5	820.8	824.8	828.7	832.5	836	839.4	842.8	846
313.15 K, x2 = 0.75	801.6	806	810.3	814.4	818.3	822.1	825.7	829.2	832.5	835.8
313.15 K, x2 = 0.875	788.6	793.1	797.5	801.6	805.6	809.4	813.1	816.6	819.9	823.2
323.15 K, x2 = 0	838.6	843	847.2	851.3	855.2	858.9	862.5	866	869.4	872.6
323.15 K, x2 = 0.125	832.1	836.5	840.8	845	848.9	852.7	856.3	859.9	863.3	866.5
323.15 K, x2 = 0.25	825.8	830.3	834.7	838.9	842.9	846.7	850.4	853.9	857.3	860.6
323.15 K, x2 = 0.375	819.1	823.6	828	832.3	836.3	840.2	843.8	847.4	850.9	854.2
323.15 K, x2 = 0.5	811.3	815.9	820.4	824.7	828.8	832.6	836.4	840	843.4	846.7
323.15 K, x2 = 0.625	802.5	807.1	811.6	815.9	820	824	827.7	831.3	834.8	838.1
323.15 K, x2 = 0.75	792.1	796.8	801.3	805.7	809.8	813.8	817.5	821.2	824.7	828.1
323.15 K, x2 = 0.875	779.3	784.1	788.7	793.1	797.3	801.3	805.1	808.8	812.3	815.7
333.15 K, x2 = 0	828.8	833.5	838	842.3	846.4	850.4	854.2	857.9	861.4	864.8
333.15 K, x2 = 0.125	822	826.7	831.4	835.8	839.9	843.9	847.8	851.5	855.1	858.5
333.15 K, x2 = 0.25	815.6	820.4	825.1	829.5	833.7	837.8	841.7	845.4	849	852.5
333.15 K, x2 = 0.375	808.8	813.6	818.4	822.9	827.1	831.2	835.1	838.9	842.5	846
333.15 K, x2 = 0.5	801.2	806.1	810.8	815.4	819.7	823.8	827.7	831.5	835.1	838.6
333.15 K, x2 = 0.625	792.3	797.2	802.1	806.7	811	815.2	819.1	822.9	826.6	830.1
333.15 K, x2 = 0.75	782	787	791.9	796.5	800.9	805.1	809.1	812.9	816.6	820.1
333.15 K, x2 = 0.875	769.5	774.6	779.5	784.2	788.7	792.9	796.9	800.7	804.4	808
343.15 K, x2 = 0	819.2	824.1	829	833.5	837.9	842.1	846	849.9	853.5	857
343.15 K, x2 = 0.125	811.9	817	821.9	826.6	831.1	835.3	839.3	843.2	846.9	850.5
343.15 K, x2 = 0.25	805.3	810.5	815.5	820.3	824.8	829	833.1	837	840.8	844.4
343.15 K, x2 = 0.375	798.5	803.7	808.8	813.6	818.1	822.4	826.5	830.5	834.2	837.9
343.15 K, x2 = 0.5	790.7	796	801.1	806	810.6	814.9	819	823	826.8	830.5
343.15 K, x2 = 0.625	781.9	787.3	792.5	797.4	802	806.3	810.5	814.5	818.3	822
343.15 K, x2 = 0.75	771.8	777.2	782.5	787.4	792	796.4	800.6	804.6	808.5	812.2
343.15 K, x2 = 0.875	759.6	765	770.3	775.3	780	784.4	788.6	792.7	796.5	800.2
353.15 K, x2 = 0	809.4	814.7	819.9	824.7	829.3	833.7	837.9	841.9	845.7	849.4
353.15 K, x2 = 0.125	801.7	807.2	812.5	817.4	822.2	826.7	830.9	835	838.9	842.7
353.15 K, x2 = 0.25	–	800.4	805.8	810.9	815.6	820.2	824.5	828.6	832.6	836.4
353.15 K, x2 = 0.375	–	793.4	798.9	804	808.8	813.4	817.8	821.9	825.9	829.7
353.15 K, x2 = 0.5	–	785.7	791.3	796.4	801.3	805.9	810.3	814.5	818.5	822.3
353.15 K, x2 = 0.625	–	777	782.6	787.9	792.8	797.4	801.8	806	810	813.9
353.15 K, x2 = 0.75	–	767.1	772.7	778	782.9	787.6	792	796.3	800.3	804.2
353.15 K, x2 = 0.875	–	755.1	760.8	766.1	771.1	775.8	780.3	784.5	788.6	792.4
